Source: patent US20250129021A1, “SMALL MOLECULE PROTEIN SYNTHESIS MODULATORS” (Interdict Bio, Inc., priority 2023, published 2025)

Tests used:
Assay type in all cases: biochemical
[1] = test system: MYC; assay: In vitro transcription-translation (IVTT) assay, MYC reporter; details: IVTT assay, HeLa S3 lysate, MYC reporter, normalized sfGFP/mCherry ratio; half-log dilutions 30 μM-0.1 μM, 2 hrs at 30° C.
Source text: (§1) All reporter constructs have been cloned into the pT7CFE1-CHis plasmid (ThermoFisher #88860) using Gibson assembly procedures (NEB #E2611L). The parental pT7CFE1-CHis plasmid contains an EMCV IRES at the 5′UTR for translation initiation, a multiple-cloning site (MCS) for gene insertion, an optional C-terminal His-epitope tag, and polyA sequence in the 3′UTR to regulate mRNA stability. All reporters are designed to be inserted at the MCS to include a red fluorescent protein (mCherry), P2A self-cleaving peptide which releases the preceding mCherry protein product, and a fusion open reading frame containing a 3×FLAG epitope, a peptide sequence of interest (TEST), and green fluorescent protein (sfGFP).
(§2) Construct Plasmid Preparation: All plasmids are isolated from MACH1 cells (ThermoFisher) grown overnight in ampicillin-containing luria broth, and purified using ZymoPure Express Plasmid Midiprep Kit (Zymo Research). Constructs are sequenced verified and diluted to a working concentration of 110 ng/μL.
(§3) HeLa S3 Lysate Preparation: HeLa S3 cell pellets are acquired from Ipracell/Ipratech (Belgium) and shipped as 4 mL frozen cell pellets on dry ice for storage at −80° C. until use. The procedure for lysate preparation is as follows. Prepare 1× Lysis Buffer, cold and stored on ice:
(§4) Each preparation takes 8 cell pellets (4 ml packed volume each, approximately 1.0×10^9 cells per pellet). Thaw cell pellets from −80° C. on ice for 90 mins. Lay pellets horizontally on top of the ice and rotate every 30 mins to ensure even thawing. Once thawed, add 4 mL of cold lysis buffer to each pellet, and using a serological pipet, gently pipet up and down to break up clumps. Incubate resuspended cells in ice for an additional 30 mins (plunged into ice). During 30 min incubation, rinse and RNase-zap (Ambion) glass dounces (use loose pestle “A”), gently dry and place on ice until needed. Prepare RNase-free Eppendorf tubes for spinning and for batch storage. Add batch labels to 1.5-1.7 mL RNase-free microcentrifuge tubes (labeling scheme below). Each batch will have an extra 1.5-1.7 mL RNase-free microcentrifuge tube for 40 μL of lysate, label the top of this tube (labeling scheme below). After 30 min incubation, transfer all 8 mL of cell pellet to dounce. Cell lysis is complete after douncing 100 times. Aliquot cell lysis into 1.5-1.7 mL temporary-microcentrifuge tubes. Place tubes in centrifuge with “fins” out, and spin at 1,200×g for 5 mins. After the first spin use a 1 mL pipet to resuspend each tube and repeat spin. This acts as an additional lysis step, is more vigorous and increases lysate yield. During second spin get liquid N2 and a fresh conical tube on ice. After spin is complete, transfer supernatant (lysate) from microcentrifuge tubes into the 50 mL conical tube and keep on ice. Repeat steps 10-14 for all other cell pellets until completed. Once all cell lysate has been transferred to the 50 mL conical tube pipet to mix so the solution is homogenous. Transfer 1 mL of lysate into batch-labeled microcentrifuge tubes and flash freeze in liquid nitrogen. Be sure to pipet up and down to mix throughout transfer step. Place all tubes in the […] for long-term storage.
(§5) In vitro transcription-translation assay setup: Each assay includes a master mix containing lysate and shared components, a 96-well plate containing compound titrations for testing, a 96-well DNA plate with reporter constructs to be tested, 96-well skirted PCR plates, and 96-well flat-bottom, black, fluorescent assay plates. […]

[2] = test system: CCND1; assay: In vitro transcription-translation (IVTT) assay, CCND1 reporter; details: IVTT, HeLa S3 lysate, 2 hrs at 30° C.
Source text: as §1, §2, §3, §4, §5

[3] = test system: MCL-1; assay: In vitro transcription-translation (IVTT) assay, MCL-1 reporter; details: IVTT, HeLa S3 lysate, 2 hrs at 30° C.; read-out: MCL1 IC50
Source text: as §1, §2, §3, §4, §5

[4] = test system: CCNTB1; assay: In vitro transcription-translation (IVTT) assay, CCNTB1 reporter; details: HeLa S3 lysate, 2 hrs at 30° C.
Protocol: as §4
In vitro transcription-translation assay setup: Each assay includes a master mix containing lysate and shared components, a 96-well plate containing compound titrations for testing, a 96-well DNA plate with reporter constructs to be tested, 96-well skirted PCR plates, and 96-well flat-bottom, black, fluorescent assay plates. Reaction materials setup: (A) Master mix—15 mL conical tube (3 mL of HeLa S3 Lysate described above; 0.6 mL of ThermoFisher Accessory Proteins (#88882); 1.2 ml of ThermoFisher Reaction Mix (#88882); 0.54 mL of nuclease-free Water); (B) 96-Well Master Mix+Compound Plate (Half-log dilutions (30 μM−0.1 μM) of 4 compounds of interest are prepared in 100% DMSO); 96-Well DNA Plate (Five DNA constructs are plated into single columns within the plate. Row 1 of the column contains nuclease free H2O, all other wells contain 110 ng/μL plasmid DNA). Reactions are started by mixing 155 μL of master mix and 3.5 μL of compound serial dilutions, then 9.1 μL of master mix+compound mixture is aliquoted across 5 96-well plates. Reactions begin with final addition of 2 μL of DNA for a 11.1 μL reaction volume in each well. The entire plate is sealed, and incubated for 2 hrs at 30° C. After 2 hrs, quench the assay using 45 μL of PBS, and transfer 50 μL to a flat-bottom black microplate Quantify the sfGFP and mCherry signals from each well on each plate, taking 3 reads of each plate, and perform data analysis below.
In vitro transcription-translation assay data analysis: Each plate is read three times in channels for both sfGFP and mCherry signals. The average signal across these 3 reads is then calculated for further analysis. Control wells containing no DNA reporter are subtracted from reporter wells in the same column to remove auto-fluorescence of the lysate. Then, the ratio of sfGFP/mCherry is calculated per well, and these ratios are averaged across the triplicate experiments on the same plate. Finally, the ratio of each titration concentration is normalized to the no drug control to create the normalized stalling metric. […]

`COc1ccc(C[C@H]2NC[C@H](O)[C@H]2OC(=O)NCc2ccc(Cl)s2)cc1` [V188373, (2R,3S,4S)-4-hydroxy-2-[(4-methoxyphenyl)methyl]pyrrolidin-3-yl N-[(5-chlorothiophen-2-yl)methyl]carbamate] gave an IC50 [1] of under 10 µM, an IC50 [2] of under 10 µM and an IC50 [3] of under 10 µM. The IC50 [4] was under 10 µM.

Compound `COc1ccc(C[C@H]2NC[C@H](O)[C@H]2OC(=O)NCc2ccc(CN)cc2)cc1` [V188322, (2R,3S,4S)-4-hydroxy-2-[(4-methoxyphenyl)methyl]pyrrolidin-3-yl N-{[4-(aminomethyl)phenyl]methyl}carbamate] has an IC50 [1] of under 10 µM, an IC50 [2] of under 10 µM and an IC50 [3] of under 10 µM. It also gave an IC50 [4] of under 10 µM.

Work on `COc1ccc(C[C@H]2NC[C@H](O)[C@H]2OC(=O)NCc2ccc(C3CCCN3)cc2)cc1` (stereo partly drawn) [V188355, (2R,3S,4S)-4-hydroxy-2-[(4-methoxyphenyl)methyl]pyrrolidin-3-yl N-{[4-(pyrrolidin-2-yl)phenyl]methyl}carbamate] yielded an IC50 [1] of under 10 µM, an IC50 [2] of under 10 µM and an IC50 [3] of under 10 µM. It also gave an IC50 [4] of under 10 µM.

Compound `COc1ccc(C[C@H]2NC[C@H](O)[C@H]2OC(=O)NCc2ccc3cnccc3c2)cc1` [V188348, (2R,3S,4S)-4-hydroxy-2-[(4-methoxyphenyl)methyl]pyrrolidin-3-yl N-(isoquinolin-6-ylmethyl)carbamate] has an IC50 [1] of under 10 µM, an IC50 [2] of under 10 µM and an IC50 [3] of under 10 µM. For the same compound, the IC50 [4] was under 10 µM.

`COc1ccc(C[C@H]2NC[C@H](O)[C@H]2OC(=O)NCc2cccc3cn[nH]c23)cc1` [V190459, (2R,3S,4S)-4-hydroxy-2-[(4-methoxyphenyl)methyl]pyrrolidin-3-yl N-(1H-indazol-7-ylmethyl)carbamate] gave an IC50 [1] of under 10 µM, an IC50 [2] of 10 to 20 µM and an IC50 [3] of under 10 µM. The IC50 [4] was under 10 µM.

`O=C(NCC[C@@H]1CCCN1)O[C@@H]1[C@@H](O)CN[C@@H]1Cc1ccc(-c2ccc(F)c(F)c2)cc1` [V191962, (2R,3S,4S)-2-({3′,4′-difluoro-[1,1′-biphenyl]-4-yl}methyl)-4-hydroxypyrrolidin-3-yl N-{2-[(2S)-pyrrolidin-2-yl]ethyl}carbamate] showed an IC50 [1] of over 30 µM, an IC50 [2] of over 30 µM and an IC50 [3] of over 30 µM. For the same compound, the IC50 [4] was over 30 µM.

Work on `COc1ccc(C[C@H]2NC[C@H](O)[C@H]2OC(=O)NCc2ccc(F)c(F)c2)cc1` [V190408, (2R,3S,4S)-4-hydroxy-2-[(4-methoxyphenyl)methyl]pyrrolidin-3-yl N-[(3,4-difluorophenyl)methyl]carbamate] yielded an IC50 [1] of under 10 µM, an IC50 [2] of under 10 µM and an IC50 [3] of under 10 µM. For the same compound, the IC50 [4] was under 10 µM.

`COc1ccc(C[C@H]2NC[C@H](O)[C@H]2OC(=O)NCc2ccc3c(c2)CCNC3)cc1` [V188345, (2R,3S,4S)-4-hydroxy-2-[(4-methoxyphenyl)methyl]pyrrolidin-3-yl N-(1,2,3,4-tetrahydroisoquinolin-6-ylmethyl)carbamate] was tested, and the IC50 [1] was under 10 µM, the IC50 [2] was under 10 µM and the IC50 [3] was under 10 µM. The IC50 [4] was under 10 µM.

`O=C(NCc1cccc(F)c1)O[C@@H]1[C@@H](O)CN[C@@H]1Cc1ccc(-c2cscn2)cc1` [V190511, (2R,3S,4S)-4-hydroxy-2-{[4-(1,3-thiazol-4-yl)phenyl]methyl}pyrrolidin-3-yl N-[(3-fluorophenyl)methyl]carbamate] was tested, and the IC50 [1] was under 10 µM, the IC50 [2] was under 10 µM and the IC50 [3] was under 10 µM. For the same compound, the IC50 [4] was under 10 µM.

For `COc1ccc(C[C@H]2NC[C@H](O)[C@H]2OC(=O)NC[C@H]2CCN(C)C2)cc1` [V188306], the IC50 [1] was under 10 µM, the IC50 [2] was under 10 µM and the IC50 [3] was under 10 µM. For the same compound, the IC50 [4] was under 10 µM.

`COc1ccc(C[C@H]2NC[C@H](O)[C@H]2OC(=O)NCc2ccc(Cn3cccn3)cc2)cc1` [V188314, (2R,3S,4S)-4-hydroxy-2-[(4-methoxyphenyl)methyl]pyrrolidin-3-yl N-{[4-(pyrazol-1-ylmethyl)phenyl]methyl}carbamate] showed an IC50 [1] of under 10 µM, an IC50 [2] of under 10 µM and an IC50 [3] of under 10 µM. It also gave an IC50 [4] of under 10 µM.

With `COc1ccc(C[C@H]2NC[C@H](O)[C@H]2OC(=O)NCc2ccc(C(N)=O)cc2)cc1` [V188296, (2R,3S,4S)-4-hydroxy-2-[(4-methoxyphenyl)methyl]pyrrolidin-3-yl N-[(4-carbamoylphenyl)methyl]carbamate] the IC50 [1] was under 10 µM, the IC50 [2] was under 10 µM and the IC50 [3] was under 10 µM. The IC50 [4] was under 10 µM.

Work on `COc1ccc(C[C@H]2NC[C@H](O)[C@H]2OC(=O)NCc2c(F)cccc2F)cc1` [V190521, (2R,3S,4S)-4-hydroxy-2-[(4-methoxyphenyl)methyl]pyrrolidin-3-yl N-[(2,6-difluorophenyl)methyl]carbamate] yielded an IC50 [1] of 20 to 30 µM, an IC50 [2] of over 30 µM and an IC50 [3] of 20 to 30 µM. For the same compound, the IC50 [4] was 10 to 20 µM.

Compound `COc1ccc(C[C@H]2NC[C@H](O)[C@H]2OC(=O)NCc2nnc(C)o2)cc1` [V188303, (2R,3S,4S)-4-hydroxy-2-[(4-methoxyphenyl)methyl]pyrrolidin-3-yl N-[(5-methyl-1,3,4-oxadiazol-2-yl)methyl]carbamate] has an IC50 [1] of under 10 µM, an IC50 [2] of under 10 µM and an IC50 [3] of under 10 µM. For the same compound, the IC50 [4] was under 10 µM.

`COc1ccc(C[C@H]2NC[C@H](O)[C@H]2OC(=O)NCC(F)(F)c2ccccc2)cc1` [V188165, (2R,3S,4S)-4-hydroxy-2-[(4-methoxyphenyl)methyl]pyrrolidin-3-yl N-(2,2-difluoro-2-phenylethyl)carbamate] showed an IC50 [1] of 20 to 30 µM, an IC50 [2] of 10 to 20 µM and an IC50 [3] of 20 to 30 µM. It also gave an IC50 [4] of under 10 µM.

In the case of `COc1ccc(C[C@H]2NC[C@H](O)[C@H]2OC(=O)NCc2cccc(C(F)F)c2)cc1` [V191954, (2R,3S,4S)-4-hydroxy-2-[(4-methoxyphenyl)methyl]pyrrolidin-3-yl N-{[3-(difluoromethyl)phenyl]methyl}carbamate], the IC50 [1] is reported as under 10 µM, the IC50 [2] is reported as under 10 µM and the IC50 [3] is reported as under 10 µM. The IC50 [4] was under 10 µM.

Work on `COc1ccc(C[C@H]2NC[C@H](O)[C@H]2OC(=O)NCC23CC(N)(C2)C3)cc1` [V188323, (2R,3S,4S)-4-hydroxy-2-[(4-methoxyphenyl)methyl]pyrrolidin-3-yl N-({3-aminobicyclo[1.1.1]pentan-1-yl}methyl)carbamate] yielded an IC50 [1] of 10 to 20 µM, an IC50 [2] of 20 to 30 µM and an IC50 [3] of 20 to 30 µM. It also gave an IC50 [4] of under 10 µM.
